One series has as its target human IgG. The experiment in a line: Affinity analysis by surface plasmon resonance (BIAcore T200), human IgG immobilized on sensor chip. The note with it: BIAcore T200, HBS-EP buffer pH 7.4, immobilized human IgG. It counts as binding. On the procedure: The affinity analysis was performed by the following method. First, a solution containing equal amounts of 0.4 M EDC (1-ethyl-3-(3-dimethylaminopropyl)-carbodiimide) and 0.1 M sulfo-NHS (sulfo-N-hydroxysuccinimide)) was injected at a flow rate of […] onto a CMS sensor chip set in BIAcore T200 (GE healthcare), thereby activating the sensor chip. Then, under the condition of pH 5.5 (10 mM Na acetate), human IgG was immobilized onto the sensor chip. For the measurement, HBS-EP buffer (10 mM HEPES, 150 mM NaCl, 0.005% Tween 20, 3 mM EDTA, pH 7.4) was used, and the binding reaction was monitored by injecting 15.6, 31.2, 62.5, 125, 250, 500, and 1000 nM of the purified cross-linked cyclic peptide described above for 180 seconds at a flow rate of […]. For measuring the dissociation reaction, only the buffer was injected for 600 seconds. The analysis of interaction parameters was performed using BIA evaluation T100 software.
In Comparative Example 1, the cross-linked cyclic peptide described in Patent Document 2 was synthesized, and measurement of affinity was performed in the same manner as in Example 1. Synthesis of the peptide and cross-linking reaction were carried out under the following conditions.
A general note: In SPR one partner is held on a chip, and binding of the other changes the refractive index at the surface.

In series [1] the test system is human serum-derived y-globulin. The series can be described thus: Evaluation of alkali resistance: DBC after washing with 0.1 M sodium hydroxide solution. In kind it is physicochemical. The note with it: up to ten cycles of 0.1 M sodium hydroxide treatment. On the procedure:
The DBC measurement was performed using a liquid chromatography instrument AKTAexplore (GE Healthcare). After equilibrating the prepared column with an adsorption solution, 1 mg/mL human serum-derived y-globulin (Sigma-Aldrich) dissolved in the adsorption solution was fed at a flow rate of 1 mL/min. The DBC was determined from the amount of the sample fed until the value of an absorbance at 280 nm excluding the non-adsorbed component reached 10% of the absorbance of the entire sample.
To a 1-mg peptide-immobilized 1-mL column prepared by the same method as in Example 2, 10 mL of 0.1 M sodium hydroxide solution was fed. The column was then washed with 10 mL of an adsorption solution. After washing with the sodium hydroxide solution/adsorption solution for 1, 2, 5, and 10 times, measurement of DBC was performed at a flow rate of 1 mL/min in the same manner as in Example 2. The variation rate of DBC was determined based on the DBC before the sodium hydroxide treatment as 100%. […]

Bridges are numbered along the chain shown (N, C = ends). Primed or numbered codes have the meaning given here. Where no end group is shown, it is not given here. [ ]: non-standard residue; d: D form. PEG4′ = not defined here

Two substances from patent publication US12202858B2, “Solid-phase carrier including IgG-binding peptide, and IgG separation method” (KAGOSHIMA UNIVERSITY, priority 2018, dated 2025) can be followed below.

Consider “N-terminal PEG4-modified, C-terminal amidated cross-linked cyclic peptide GPDCAYHRGELVWCTFH (SEQ ID NO: 31), two cysteine residues linked as in the formula [Example 1]”, for which, at human IgG, the Kd (usually the concentration at which binding is half-saturated) is 340 nM; the koff (usually the first-order rate constant of dissociation) was determined as 0.22 s⁻¹; the kon (in general, the rate constant with which the complex forms) was 650000 M⁻¹ s⁻¹. Also, the “decrease in DBC by sodium hydroxide treatment (alkali resistance)” value in series [1] is “almost no decrease in DBC”.
On human IgG, “PEG4-modified, amidated GPDCAYHRGELVWCTFH peptide of Patent Document 2, cysteine sulfide groups linked via 1,3-dichloro-2-propanone-derived linker ([PEG4′]GPDCAYHRGELVWCTFH-NH2; bridge 5-15; not fully specified (bridges)) [Comparative Example 1, reference compound]” came in with a Kd of 4900 nM, a koff of 0.005 s⁻¹ and a kon of 1000 M⁻¹ s⁻¹.
